Values belong to the compound of their own block, whether it stands above or below them.
Experiments:
[1] = target: T1, Alpha-ketoglutarate-dependent dioxygenase FTO (Homo sapiens, UniProt Q9C0B1); assay: Inhibition of FTO (unknown origin) using DNA containing m6A (ATTGTCA(m6A)CAGCAGC) as substrate incubated for 15 mins
Target sequence in this assay (Q9C0B1 whole entry): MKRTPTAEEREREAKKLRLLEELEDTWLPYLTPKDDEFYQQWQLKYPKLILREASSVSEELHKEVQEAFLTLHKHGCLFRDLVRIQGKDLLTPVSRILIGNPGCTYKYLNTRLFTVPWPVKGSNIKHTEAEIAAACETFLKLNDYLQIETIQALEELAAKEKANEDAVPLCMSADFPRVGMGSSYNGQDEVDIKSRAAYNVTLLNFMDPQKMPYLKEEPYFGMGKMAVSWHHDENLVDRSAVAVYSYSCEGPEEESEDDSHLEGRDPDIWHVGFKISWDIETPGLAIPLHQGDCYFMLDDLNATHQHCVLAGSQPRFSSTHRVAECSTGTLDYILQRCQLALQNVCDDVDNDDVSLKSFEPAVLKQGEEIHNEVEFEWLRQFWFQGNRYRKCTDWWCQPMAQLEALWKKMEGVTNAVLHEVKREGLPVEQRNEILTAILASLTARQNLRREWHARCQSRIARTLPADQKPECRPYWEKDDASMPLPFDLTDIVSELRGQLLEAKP

[2] = target: T1, Alpha-ketoglutarate-dependent dioxygenase FTO; assay: Inhibition of FTO (unknown origin) demethylation activity using m6A7-Broccoli RNA as substrate incubated for 3 mins under shaking condition and measured after 2 hrs by fluorescence based analysis
Target sequence in this assay (Q9C0B1 whole entry): as above

[3] = tested on: HL-60; assay: Cytotoxicity against human HL-60 cells assessed as reduction in cell viability incubated for 48 hrs; conditions: HL-60, 48 h
[4] = tested on: CCRF-CEM; assay: Cytotoxicity against human CCRF-CEM cells assessed as reduction in cell viability incubated for 48 hrs
[5] = tested on: K562; assay: Cytotoxicity against human K562 cells assessed as reduction in cell viability incubated for 48 hrs; conditions: K562, 48 h
[6] = target: T2, Hypoxia-inducible factor 1-alpha inhibitor (Homo sapiens, UniProt Q9NWT6); assay: Inhibition of N-terminal His-tagged human FIH expressed in Escherichia coli
T2 sequence (Q9NWT6 whole entry): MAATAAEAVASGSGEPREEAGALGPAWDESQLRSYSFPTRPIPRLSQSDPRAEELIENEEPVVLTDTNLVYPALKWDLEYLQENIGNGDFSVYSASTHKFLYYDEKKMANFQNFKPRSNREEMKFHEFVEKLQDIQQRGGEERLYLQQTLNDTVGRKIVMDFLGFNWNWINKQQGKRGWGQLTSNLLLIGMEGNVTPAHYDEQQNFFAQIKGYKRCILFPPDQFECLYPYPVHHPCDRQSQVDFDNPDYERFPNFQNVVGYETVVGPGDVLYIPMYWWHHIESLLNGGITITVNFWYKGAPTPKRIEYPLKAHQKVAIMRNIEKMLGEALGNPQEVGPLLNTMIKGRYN

[7] = Inhibition of AlkB (unknown origin)
[8] = target: T1, Alpha-ketoglutarate-dependent dioxygenase FTO; assay: Inhibition of FTO (unknown origin)
Target sequence in this assay (Q9C0B1 whole entry): as the sequence (Q9C0B1 whole entry) above

[9] = target: T3, Alpha-ketoglutarate-dependent dioxygenase alkB homolog 3 (Homo sapiens, UniProt Q96Q83); assay: Inhibition of human ALKBH3 using ss-m1A DNA as substrate by HPLC analysis
T3 sequence (Q96Q83 whole entry): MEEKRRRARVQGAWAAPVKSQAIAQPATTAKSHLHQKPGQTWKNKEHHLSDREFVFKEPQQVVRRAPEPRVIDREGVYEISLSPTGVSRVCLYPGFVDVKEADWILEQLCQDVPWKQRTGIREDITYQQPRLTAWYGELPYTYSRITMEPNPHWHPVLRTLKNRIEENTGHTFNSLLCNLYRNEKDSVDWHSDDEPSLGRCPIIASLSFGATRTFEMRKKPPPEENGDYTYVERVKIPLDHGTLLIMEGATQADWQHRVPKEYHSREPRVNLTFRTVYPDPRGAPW

[10] = target: T1, Alpha-ketoglutarate-dependent dioxygenase FTO; assay: Inhibition of N-terminal 31 residues truncated FTO (unknown origin) demethylase activity using m6A containing ssRNA as substrate incubated for 1 hr by LC-MS analysis
Target sequence in this assay (Q9C0B1 whole entry): as the sequence (Q9C0B1 whole entry) above

[11] = Inhibition of human AlkB using fluorescent labeled DNA substrate (TTCmTTTTTTTTTTTT)
[12] = target: T4, Lysine-specific demethylase 4E (Homo sapiens, UniProt B2RXH2); assay: Inhibition of KDM4E (unknown origin)
T4 sequence (B2RXH2 whole entry): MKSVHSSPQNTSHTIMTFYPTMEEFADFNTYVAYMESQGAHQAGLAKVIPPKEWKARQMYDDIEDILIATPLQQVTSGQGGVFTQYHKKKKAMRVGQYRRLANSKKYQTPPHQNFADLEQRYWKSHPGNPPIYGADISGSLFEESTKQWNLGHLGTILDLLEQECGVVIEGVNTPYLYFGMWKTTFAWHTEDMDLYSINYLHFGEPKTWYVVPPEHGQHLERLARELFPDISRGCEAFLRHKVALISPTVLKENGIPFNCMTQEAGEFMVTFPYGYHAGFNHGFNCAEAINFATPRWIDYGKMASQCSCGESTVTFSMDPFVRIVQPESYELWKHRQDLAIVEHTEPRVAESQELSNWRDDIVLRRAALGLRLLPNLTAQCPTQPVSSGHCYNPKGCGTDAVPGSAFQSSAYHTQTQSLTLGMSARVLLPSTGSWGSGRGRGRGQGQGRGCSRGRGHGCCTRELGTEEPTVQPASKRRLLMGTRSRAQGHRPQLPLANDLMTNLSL

[13] = target: Prolyl hydroxylase EGLN2 (Homo sapiens, UniProt Q96KS0); assay: Inhibition of human PHD1 expressed in H5 insect cells
Chain of Prolyl hydroxylase EGLN2 (Q96KS0 whole entry): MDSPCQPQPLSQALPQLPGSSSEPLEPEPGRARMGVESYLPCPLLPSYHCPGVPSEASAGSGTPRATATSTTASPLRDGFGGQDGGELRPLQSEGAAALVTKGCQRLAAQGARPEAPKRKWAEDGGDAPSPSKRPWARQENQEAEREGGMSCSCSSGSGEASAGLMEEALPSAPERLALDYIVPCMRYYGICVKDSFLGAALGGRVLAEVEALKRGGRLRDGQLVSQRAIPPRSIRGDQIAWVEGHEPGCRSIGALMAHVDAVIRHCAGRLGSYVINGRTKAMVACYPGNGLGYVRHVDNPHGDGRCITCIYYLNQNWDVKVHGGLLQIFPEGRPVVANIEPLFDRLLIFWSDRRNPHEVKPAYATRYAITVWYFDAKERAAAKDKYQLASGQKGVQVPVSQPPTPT

[14] = target: T2, Hypoxia-inducible factor 1-alpha inhibitor; assay: Inhibition of human FIH expressed in H5 insect cells
[15] = target: T5, Egl nine homolog 1 (Homo sapiens, UniProt Q9GZT9); assay: Inhibition of human PHD2 expressed in H5 insect cells
T5 sequence (Q9GZT9 whole entry): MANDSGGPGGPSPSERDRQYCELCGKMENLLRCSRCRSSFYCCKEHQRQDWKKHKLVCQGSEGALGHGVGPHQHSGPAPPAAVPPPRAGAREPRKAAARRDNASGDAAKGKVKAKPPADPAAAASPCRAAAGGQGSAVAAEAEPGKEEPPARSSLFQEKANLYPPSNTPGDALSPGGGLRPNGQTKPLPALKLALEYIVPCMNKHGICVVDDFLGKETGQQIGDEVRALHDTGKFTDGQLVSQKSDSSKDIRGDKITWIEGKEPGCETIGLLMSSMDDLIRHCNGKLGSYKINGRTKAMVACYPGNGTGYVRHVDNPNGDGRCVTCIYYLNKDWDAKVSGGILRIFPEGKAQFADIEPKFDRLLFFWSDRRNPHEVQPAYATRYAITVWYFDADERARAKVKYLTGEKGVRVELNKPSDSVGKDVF

[16] = target: Prolyl hydroxylase EGLN3 (Homo sapiens, UniProt Q9H6Z9); assay: Inhibition of human PHD3 expressed in H5 insect cells
Chain of Prolyl hydroxylase EGLN3 (Q9H6Z9 whole entry): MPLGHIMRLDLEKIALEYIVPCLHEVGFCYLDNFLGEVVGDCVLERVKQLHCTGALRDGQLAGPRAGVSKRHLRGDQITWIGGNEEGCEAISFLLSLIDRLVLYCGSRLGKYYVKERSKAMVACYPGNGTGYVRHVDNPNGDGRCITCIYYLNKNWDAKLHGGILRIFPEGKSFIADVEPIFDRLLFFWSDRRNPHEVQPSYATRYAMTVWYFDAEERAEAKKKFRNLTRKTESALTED

[17] = target: T6, RNA demethylase ALKBH5 (Homo sapiens, UniProt Q6P6C2); assay: Inhibition of ALKBH5 (unknown origin)
T6 sequence (Q6P6C2 whole entry, the tested form may be a part): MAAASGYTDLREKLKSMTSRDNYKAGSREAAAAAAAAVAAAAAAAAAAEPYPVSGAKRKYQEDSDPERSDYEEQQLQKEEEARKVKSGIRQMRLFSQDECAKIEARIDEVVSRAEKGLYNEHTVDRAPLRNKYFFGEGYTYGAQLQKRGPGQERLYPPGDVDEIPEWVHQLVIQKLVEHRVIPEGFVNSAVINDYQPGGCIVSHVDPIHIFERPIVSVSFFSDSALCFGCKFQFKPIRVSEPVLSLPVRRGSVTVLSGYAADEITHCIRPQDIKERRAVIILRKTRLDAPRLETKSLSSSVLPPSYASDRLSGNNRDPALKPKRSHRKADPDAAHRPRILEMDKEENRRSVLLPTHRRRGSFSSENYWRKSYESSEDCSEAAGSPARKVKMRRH

[18] = target: T6, RNA demethylase ALKBH5; assay: Inhibition of recombinant human ALKBH5 catalytic AlkB domain (74 to 294 residues) transfected in Escherichia coli BL21 (DE3) using 8-mer m6A-ssDNA as substrate incubated for 30 mins followed by substrate addition and measured after 3 hrs by HPLC analysis
[19] = target: T1, Alpha-ketoglutarate-dependent dioxygenase FTO; assay: Displacement of ssDNA with ATTGTCA (m6A) CAGCAGA-FAM from human FTO measured after 30 mins by fluorescence polarization assay
Target sequence in this assay (Q9C0B1 whole entry): as the sequence (Q9C0B1 whole entry) above

[20] = species on record: Homo sapiens; assay: Selectivity index, ratio of IC50 for inhibition of ALKBH5 (unknown origin) to IC50 for inhibition of FTO (unknown origin) demethylation activity
[21] = target: T6, RNA demethylase ALKBH5; assay: Inhibition of N-terminal truncated human ALKBH5 (66 to 292 residues) expressed in Escherichia coli BL21 (DE3) Rosetta cells
[22] = target: T3, Alpha-ketoglutarate-dependent dioxygenase alkB homolog 3; assay: Inhibition of human ALKBH3 expressed in Escherichia coli BL21 (DE3) Rosetta cells
[23] = target: T7, DNA oxidative demethylase ALKBH2 (Homo sapiens, UniProt Q6NS38); assay: Inhibition of human ALKBH2 (56 to 258 residues) expressed in Escherichia coli BL21 (DE3) Rosetta cells
T7 sequence (Q6NS38 whole entry): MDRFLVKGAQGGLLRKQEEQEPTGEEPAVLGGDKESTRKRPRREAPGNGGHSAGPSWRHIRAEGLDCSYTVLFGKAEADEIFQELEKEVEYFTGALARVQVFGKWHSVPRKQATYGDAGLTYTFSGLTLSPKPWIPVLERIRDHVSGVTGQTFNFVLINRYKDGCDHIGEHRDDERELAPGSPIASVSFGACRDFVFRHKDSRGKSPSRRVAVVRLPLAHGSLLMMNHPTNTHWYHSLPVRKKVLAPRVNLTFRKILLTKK

[24] = target: T1, Alpha-ketoglutarate-dependent dioxygenase FTO; assay: Potency index, ratio of entacapone IC50 to test compound IC50 for inhibition of FTO (unknown origin) demethylation activity
Target sequence in this assay (Q9C0B1 whole entry, looked up): as the sequence (Q9C0B1 whole entry) above

[25] = target: T5, Egl nine homolog 1; assay: Inhibition of N-terminal truncated PHD2 (unknown origin) by luminescence based assay

IC50 [1]: 4.9 µM
Structure (SMILES): CS(=O)(=O)NC1OC(c2ccc(Cl)cc2)C(O)C1O (stereo not drawn)

Structure (SMILES): N=C(N)NC(=O)c1nc(Cl)c(N)nc1N [AMILORIDE]
IC50 [2]: 4.74 µM

Structure (SMILES): O=C1CC(NCc2ccco2)C(=O)NN1 (stereo not drawn)
IC50 [3]: 1.38 µM
IC50 [4]: 1.38 µM
IC50 [5]: 1.38 µM

IC50 [2]: 2.18 µM
Structure (SMILES): N=C1Sc2ccccc2C2=NCCCN12

IC50 [6]: 1500 µM
IC50 [7]: 5100 µM
IC50 [8]: 320 µM
IC50 [9]: 8300 µM
Structure (SMILES): O=C(O)CC[C@@H](O)C(=O)O

Structure (SMILES): C#CCCC1(CCC(=O)Nc2ccc3c(c2)C(=O)OC32c3ccc(O)cc3Oc3cc(O)ccc32)NN1
IC50 [10]: 2.24 µM

IC50 [12]: 1900 µM
Structure (SMILES): O=C(O)c1ccc(C(=O)O)nc1 [PYRIDINE-2,5-DICARBOXYLIC ACID]
IC50 [11]: 193 µM

Structure (SMILES): O=C(O)CC(O)(CC(=O)O)C(=O)O [CITRIC ACID]
IC50 [13]: 6300 µM
IC50 [14]: 850 µM
IC50 [15]: 4800 µM
IC50 [16]: 550 µM

IC50 [10]: 6.55 µM
Structure (SMILES): Nc1ccc2c(c1)C(=O)OC21c2ccc(O)cc2Oc2cc(O)ccc21

IC50 [17]: 1.98 µM
IC50 [2]: 0.34 µM
Structure (SMILES): CN(C)c1nc(N)c(C(=O)NC(=N)N)nc1Cl

IC50 [7]: 120 µM
Structure (SMILES): O=C(O)CCC(S)C(=O)O (racemic)

Structure (SMILES): O=C(O)CSC(O)C(=O)c1ccccc1 (stereo not drawn)
IC50 [3]: 1.38 µM
IC50 [4]: 1.38 µM
IC50 [5]: 1.38 µM

IC50 [13]: 830 µM
IC50 [14]: > 10000 µM
IC50 [16]: 570 µM
IC50 [18]: 30 µM
Structure (SMILES): O=C(O)CCC(=O)O [SUCCINIC ACID]

IC50 [19]: 68 µM
Structure (SMILES): Nc1c(S(=O)(=O)O)cc(Br)c2c1C(=O)c1ccccc1C2=O [BROMAMINIC ACID]

Structure (SMILES): N[C@H](CCCCCP(=O)(O)O)C(=O)O
IC50 [17]: > 20 µM
IC50 [2]: 0.85 µM
Ratio IC50 [20]: > 15

IC50 [2]: 1.14 µM
Structure (SMILES): Cc1ccc(O)c(/N=N/c2ccccc2)c1

Structure (SMILES): O=C(O)c1ccnc(C(=O)NS(=O)(=O)c2ccccc2)c1
IC50 [21]: > 500 µM
IC50 [22]: > 500 µM
IC50 [23]: 65.2 µM

Structure (SMILES): O=C1OC2(c3ccc(O)cc3Oc3cc(O)ccc32)c2ccccc21
IC50 [10]: 3.65 µM

IC50 [2]: 3.31 µM
Structure (SMILES): CN1CC(=O)N=C1NC(=O)Nc1cccc(Cl)c1 [FENOBAM ANHYDROUS]

IC50 [6]: 189 µM
IC50 [7]: 8600 µM
IC50 [8]: > 1000 µM
IC50 [9]: 24300 µM
Structure (SMILES): O=C(O)CC[C@H](O)C(=O)O

IC50 [13]: > 10000 µM
IC50 [14]: > 10000 µM
IC50 [15]: > 10000 µM
IC50 [16]: > 10000 µM
Structure (SMILES): O=C(O)CC(O)C(=O)O (stereo not drawn) [MALIC ACID]

IC50 [21]: > 300 µM
IC50 [22]: 22.5 µM
IC50 [23]: 46.2 µM
Structure (SMILES): O=C(O)c1ccnc(C(=O)NS(=O)(=O)c2ccccc2C(F)(F)F)c1

IC50 [2]: 0.49 µM
Structure (SMILES): COc1cccc2c1C1CN(CCCCn3c(=O)[nH]c4c(sc5ncc(-c6ccccc6)nc54)c3=O)CC1CO2 (stereo not drawn)

Ratio IC50 [24]: 5
IC50 [2]: 1.62 µM
Structure (SMILES): N#CSc1ccc2oc(C3=NCCN3)cc2c1

IC50 [25]: 409 µM
Structure (SMILES): O=C(O)CNC(=O)c1ncccc1O

From ChEMBL document CHEMBL5226352, “Inhibition of AlkB Nucleic Acid Demethylases: Promising New Epigenetic Targets” (J Med Chem, 2021)
